Patent publication US7384927B2, “Alkylated porphyrins as pesticides acting both in the presence and absence of light” (priority 2003, dated 2008)

Experiments:
Assay type in all cases: in vivo
Ceratitis capitata flies [1] = test: Photoinsecticidal action: fly survival after bait and visible light irradiation (artificial lamp); settings: 8 μM in bait, survival 10 h after irradiation
Description: (§1) Porphyrins: • a) meso[tri(N-methyl-pyridyl), mono(N-dodecyl-pyridyl)]porphine (abbr.: C12) • b) meso[tri(N-methyl-pyridyl), mono(N-tetradecyl-pyridyl)]porphine (abbr.: C14) • c) meso[tri(N-methyl-pyridyl), mono(N-octadecyl-pyridyl)]porphine (abbr.: C18) Bait: Aqueous solution containing 10% sucrose and 1% autolysed yeast Flies: • a) Ceratitis capitata (fruit fly) age: 1 week; weight: 5-6 mg • b) Bactrocera oleae (olive fly) age: 10 days; weight: 4-4.5 mg • c) Stomoxis calcitrans (stable fly) age: 10 days; weight: 12 mg Irradiation: • a) High pressure halogen lamp, equipped with infrared and UV filters, emission 360-850 nm, operated at intensities in the 760-2,000 μE s^−1m^−2 range • b) Sunlight, mid June at Padua latitude, average intensity of […] μE s^−1m^−2 with minimum and maximum values of 950 and, respectively, 1,380 μE s^−1m^−2
The irradiations were performed for 1 h, then the flies were kept in dim light for monitoring the survival. Control flies were irradiated under identical conditions after feeding with a porphyrin-free bait.
The irradiations were performed for 1 h at a fluence-rate of 1220 μE s^−1m^−2. The survival was evaluated 10 h after the end of irradiation. […] The porphyrins are abbreviated as following: HP: haematoporphyrin; C1: meso-tetra(N-methyl-pyridyl)porphine.
The survival was evaluated 10 h after the end of irradiation.
An appropriate number of flies (50 flies per each experiment) was caged in 115×55×70 mm Plexiglas cages with several holes (ø=0.5 mm) and starved for 36 h. Then, depending on the protocol to be adopted for each specific experiment, the flies were fed with the bait (10% sucrose and 1% autolysed yeast in neutral aqueous solution), which was either porphyrin-free or added with a predetermined concentration of the porphyrin. These flies were then used in the various experimental sessions. […]

Ceratitis capitata flies [2] = test: Photoinsecticidal action: fly survival after bait and sunlight irradiation; settings: 8 μM in bait, 12 h after feeding, survival 1 h after irradiation
Description: as §1
The survival was evaluated 1 h after the end of irradiation.
An appropriate number of flies (50 flies per each experiment) was caged in 115×55×70 mm Plexiglas cages with several holes (ø=0.5 mm) and starved for 36 h. Then, depending on the protocol to be adopted for each specific experiment, the flies were fed with the bait (10% sucrose and 1% autolysed yeast in neutral aqueous solution), which was either porphyrin-free or added with a predetermined concentration of the porphyrin. These flies were then used in the various experimental sessions.

Ceratitis capitata flies [3] = test: Insecticidal action in the dark: fly survival after porphyrin bait; settings: for mortality of the flies in the dark: C. capitata, even at the largest porphyrin dose (8.1 μM); for Survival (% of control untreated flies): dark, fed 24 h, survival 12 h after change to porphyrin-free bait
Description: For comparison, data obtained with two conventional porphyrins (as those described in WO 97/29637) offered to the insects for 24 h at a 3.0 and 8.1 μmolar concentration in the same bait are also shown. In all cases, the survival was determined 12 hours after changing food supply from a porphyrin-containing to a porphyrin-free bait. […] These flies were then used in the various experimental sessions. […] The number of survivors was evaluated 12 h after switching from administration of a porphyrin-containing bait to a porphyrin-free bait. In none of the experiments was mortality or any apparent toxic effect observed in control flies (flies not fed with porphyrin, see survival at 0 μM porphyrin concentration).

[4] = fluence-rate 760 μE s^−1m^−2, irradiated 24 h after feeding (title)
[5] = fluence-rate 1220 μE s^−1m^−2, irradiated 24 h after feeding (title)
[6] = fluence-rate 1500 μE s^−1m^−2, irradiated 24 h after feeding (title)
[7] = fluence-rate 2000 μE s^−1m^−2, irradiated 24 h after feeding (title)
[8] = time interval feeding-irradiation 0 h, irradiation 1 h at 1220 μE s^−1m^−2
[9] = time interval feeding-irradiation 12 h, irradiation 1 h at 1220 μE s^−1m^−2
[10] = time interval feeding-irradiation 24 h, irradiation 1 h at 1220 μE s^−1m^−2
[11] = time interval feeding-irradiation 48 h, irradiation 1 h at 1220 μE s^−1m^−2

Structure (SMILES) | Survival (% of control untreated flies) (Ceratitis capitata flies [1]; [4]) | Survival (% of control untreated flies) (Ceratitis capitata flies [1]; [5]) | Survival (% of control untreated flies) (Ceratitis capitata flies [1]; [6]) | Survival (% of control untreated flies) (Ceratitis capitata flies [1]; [7]) | Survival (% of control untreated flies) (Ceratitis capitata flies [1]; [8]) | Survival (% of control untreated flies) (Ceratitis capitata flies [1]; [9]) | Survival (% of control untreated flies) (Ceratitis capitata flies [1]; [10]) | Survival (% of control untreated flies) (Ceratitis capitata flies [1]; [11]) | Survival (% of control untreated flies) (Ceratitis capitata flies [2]; sunlight 15 min) | Survival (% of control untreated flies) (Ceratitis capitata flies [2]; sunlight 30 min) | Survival (% of control untreated flies) (Ceratitis capitata flies [2]; sunlight 45 min) | Survival (% of control untreated flies) (Ceratitis capitata flies [2]; sunlight 60 min) | mortality of the flies in the dark (Ceratitis capitata flies [3]) | Survival (% of control untreated flies) (Ceratitis capitata flies [3]; 3.00 μM in bait) | Survival (% of control untreated flies) (Ceratitis capitata flies [3]; 8.10 μM in bait)
C[n+]1ccc(-c2c3nc(c(-c4cc[n+](C)cc4)c4ccc([nH]4)c(-c4cc[n+](C)cc4)c4nc(c(-c5cc[n+](C)cc5)c5ccc2[nH]5)C=C4)C=C3)cc1 [C1, Meso-tetra (N-methyl-pyridyl) porphine, reference compound] | 100 % of control untreated flies | 90 % of control untreated flies | 81 % of control untreated flies | 73 % of control untreated flies | 90 % of control untreated flies | 94 % of control untreated flies | 100 % of control untreated flies | 97 % of control untreated flies | 100 % of control untreated flies | 100 % of control untreated flies | 93 % of control untreated flies | 97 % of control untreated flies | no mortality of the flies was observed | 100 % of control untreated flies | 100 % of control untreated flies
CC1=C(CCC(=O)O)c2cc3[nH]c(cc4nc(cc5[nH]c(cc1n2)c(C)c5C(C)O)C(C)=C4C(C)O)c(C)c3CCC(=O)O (stereo not drawn) [Hp, Haematoporphyrin, reference compound] | 81 % of control untreated flies | 20 % of control untreated flies | 11 % of control untreated flies | 8 % of control untreated flies | 20 % of control untreated flies | 37 % of control untreated flies | 58 % of control untreated flies | 61 % of control untreated flies | 75 % of control untreated flies | 70 % of control untreated flies | 64 % of control untreated flies | 40 % of control untreated flies | no mortality of the flies was observed | 100 % of control untreated flies | 100 % of control untreated flies
